In patent EP1019392B1, “TRICYCLIC AMIDES USEFUL FOR INHIBITION OF G-PROTEIN FUNCTION AND FOR TREATMENT OF PROLIFERATIVE DISEASES” (SCHERING CORPORATION, priority 1995, dated 1997):
Where two headings read alike, the source gives them in different places.

Assays:
[1] = biological target: T1, geranylgeranyl protein transferase (GGPT) I (Rattus norvegicus, UniProt P53610+Q04631); test: In vitro enzyme assay: inhibition of geranylgeranyl protein transferase I (Ras-CVLL as acceptor); format: biochemical; details: Table 2; Ras-CVLL as isoprenoid acceptor
T1 construct: geranylgeranyl protein transferase (GGPT) I were partially purified from rat brain; from tissue; host or cells: rat brain
Source text: • 1. In vitro enzyme assays: Inhibition of farnesyl protein transferase and geranylgeranyl protein transferase. Both farnesyl protein transferase (FPT) and geranylgeranyl protein transferase (GGPT) I were partially purified from rat brain by ammonium sulfate fractionation followed by Q-Sepharose (Pharmacia, Inc.) anion exchange chromatography essentially as described by Yokoyama et al (Yokoyama, K., et al., (1991), A protein geranylgeranyltransferase from bovine brain: Implications for protein prenylation specificity, Proc. Natl. Acad. Sci USA 88: 5302-5306, the disclosure of which is incorporated herein by reference thereto). Human farnesyl protein transferase was also expressed in E. coli, using cDNA clones encoding both the a and b subunits. The methods used were similar to those published (Omer, C. et al., (1993), Characterization of recombinant human farnesyl protein transferase: Cloning, expression, farnesyl diphosphate binding, and functional homology with yeast prenyl-protein transferases, Biochemistry 32:5167-5176). Human farnesyl protein transferase was partially-purified from the soluble protein fraction of E. coli as described above. The tricyclic farnesyl protein transferase inhibitors disclosed herein inhibited both human and rat enzyme with similar potencies. Two forms of val^12-Ha-Ras protein were prepared as substrates for these enzymes, differing in their carboxy terminal sequence. One form terminated in cysteine-valine-leucine-serine (Ras-CVLS) the other in cystein-valine-leucine-leucine (Ras-CVLL). Ras-CVLS is a substrate for the farnesyl protein transferase while Ras-CVLL is a substrate for geranylgeranyl protein transferase I. The cDNAs encoding these proteins were constructed so that the proteins contain an amino-terminal extension of 6 histidine residues. Both proteins were expressed in Escherichia coli and purified using metal chelate affinity chromatography. The radiolabelled isoprenyl pyrophosphate substrates, [^3H]farnesyl pyrophosphate and [^3H]geranylgeranyl pyrophosphate, were purchased from DuPont/New England Nuclear. Several methods for measuring farnesyl protein transferase activity have been described (Reiss et al 1990, Cell 62: 81; Schaber et al 1990, J. Biol. Chem. 265: 14701; Manne et al 1990, PNAS 87: 7541; and Barbacid & Manne 1993, U.S. Patent No. 5,185,248). The activity was assayed by measuring the transfer of [^3H]farnesyl from [^3H]farnesyl pyrophosphate to Ras-CVLS using conditions similar to those described by Reiss et al. 1990 (Cell 62: 81) The reaction mixture contained 40 mM Hepes, pH 7.5; 20 mM magnesium chloride; 5 mM dithiothreitol; 0.25 µM [^3H]farnesyl pyrophosphate; […] Q-Sepharose-purified farnesyl protein transferase; the indicated concentration of tricyclic compound or dimethylsulfoxide (DMSO) vehicle control (5% DMSO final); and […] Ras-CVLS in a total volume of […]. The reaction was allowed to proceed for 30 minutes at room temperature and then stopped with 0.5 ml of 4% sodium dodecyl sulfate (SDS) followed by 0.5 ml of cold 30% TCA. Samples were allowed to sit on ice for 45 minutes and precipitated Ras protein was then collected on GF/C filter paper mats using a Brandel cell harvester. Filter mats were washed once with 6% TCA, 2% SDS and radioactivity was measured in a Wallac 1204 Betaplate BS liquid scintillation counter. Percent inhibition was calculated relative to the DMSO vehicle control. The geranylgeranyl protein transferase I assay was essentially identical to the farnesyl protein transferase assay described above, with two exceptions: [^3H]geranylgeranylpyrophosphate replaced farnesyl pyrophosphate as the isoprenoid donor and Ras-CVLL was the protein acceptor. This is similar to the assay reported by Casey et al (Casey, P.J., et al., (1991), Enzymatic modification of proteins with a geranylgeranyl isoprenoid, Proc. Natl. Acad. Sci, USA 88: 8631-8635, the disclosure of which is incorporated herein by reference thereto). • 2. […]

[2] = test system: T24-BAG4 human bladder carcinoma cells expressing an activated H-ras gene; test: Cell Mat Assay, T24 tumor cells; format: cell-based; details: read-out: Tumor (T-24) IC50
[3] = test system: Normal human HEPM fibroblasts; test: Cell Mat Assay, normal cell mat; format: cell-based; details: normal monolayer
[4] = biological target: T2, farnesyl protein transferase (FPT) (Rattus norvegicus, UniProt Q02293+Q04631); test: In vitro enzyme assay: inhibition of farnesyl protein transferase (transfer of [3H]farnesyl to Ras-CVLS); format: biochemical
T2 construct: were partially purified from rat brain by ammonium sulfate fractionation followed by Q-Sepharose; from tissue; host or cells: rat brain
Protocol: • 1. In vitro enzyme assays: Inhibition of farnesyl protein transferase and geranylgeranyl protein transferase. […] Human farnesyl protein transferase was also expressed in E. coli, using cDNA clones encoding both the a and b subunits. […] Human farnesyl protein transferase was partially-purified from the soluble protein fraction of E. coli as described above. […] Two forms of val^12-Ha-Ras protein were prepared as substrates for these enzymes, differing in their carboxy terminal sequence. One form terminated in cysteine-valine-leucine-serine (Ras-CVLS) the other in cystein-valine-leucine-leucine (Ras-CVLL). Ras-CVLS is a substrate for the farnesyl protein transferase while Ras-CVLL is a substrate for geranylgeranyl protein transferase I. The cDNAs encoding these proteins were constructed so that the proteins contain an amino-terminal extension of 6 histidine residues. Both proteins were expressed in Escherichia coli and purified using metal chelate affinity chromatography. The radiolabelled isoprenyl pyrophosphate substrates, [^3H]farnesyl pyrophosphate and [^3H]geranylgeranyl pyrophosphate, were purchased from DuPont/New England Nuclear. […] The reaction was allowed to proceed for 30 minutes at room temperature and then stopped with 0.5 ml of 4% sodium dodecyl sulfate (SDS) followed by 0.5 ml of cold 30% TCA. Samples were allowed to sit on ice for 45 minutes and precipitated Ras protein was then collected on GF/C filter paper mats using a Brandel cell harvester. […] Percent inhibition was calculated relative to the DMSO vehicle control. The geranylgeranyl protein transferase I assay was essentially identical to the farnesyl protein transferase assay described above, with two exceptions: [^3H]geranylgeranylpyrophosphate replaced farnesyl pyrophosphate as the isoprenoid donor and Ras-CVLL was the protein acceptor. […] Cell-Based Assay: Transient expression of val^12-Ha-Ras-CVLS and val^12-Ha-Ras-CVLL in COS monkey kidney cells: Effect of farnesyl protein transferase inhibitors on Ras processing and on disordered cell growth induced by transforming Ras. COS monkey kidney cells were transfected by electroporation with the plasmid pSV-SPORT (Gibco/BRL) containing a cDNA insert encoding either Ras-CVLS or Ras-CVLL, leading to transient overexpression of a Ras substrate for either farnesyl protein transferase or geranylgeranyl protein transferase I, respectively (see above). Following electroporation, cells were plated into 6-well tissue culture dishes containing 1.5 ml of Dulbecco's-modified Eagle's media (GIBCO, Inc.) supplemented with 10% fetal calf serum and the appropriate farnesyl protein transferase inhibitors. After 24 hours, media was removed and fresh media containing the appropriate drugs was re-added. 48 hours after electroporation cells were examined under the microscope to monitor disordered cell growth induced by transforming Ras. Cells expressing transforming Ras become more rounded and refractile and overgrow the monolayer, reminiscent of the transformed phenotype. Cells were then photographed, washed twice with 1 ml of cold phosphate-buffered saline (PBS) and removed from the dish by scraping with a rubber policeman into 1 ml of a buffer containing 25 mM Tris, pH 8.0; 1 mM ethylenediamine tetraacetic acid; 1 mM phenylmethylsulfonyl fluoride; […] leupeptin; and 0.1 mM pepstatin. Cells were lysed by homogenization and cell debris was removed by centrifugation at 2000 x g for 10 min. Cellular protein was precipitated by addition of ice-cold trichloroacetic acid and redissolved in […] of SDS-electrophoresis sample buffer. […] Proteins resolved on the gels were electroblotted onto nitrocellulose membranes for immunodetection. […] After washing, membranes were incubated for one hour at room temperature with a 1:5000 dilution of secondary antibody, rabbit anti-rat IgG conjugated to horseradish peroxidase, in PBS containing 1% fetal calf serum.

[5] = test system: DLD-1 (human colon carcinoma cells, ATCC # CCL 221); test: In Vivo Anti-Tumor Studies, subcutaneous DLD-1 tumors; set-up: species or system athymic nu/nu female mice; details: Mus musculus, DLD-1, po, QID, 4 weeks, range over the listed compounds; for inhibition in vivo at 10 mg/kg: 10 mg/kg p.o.; for inhibition in vivo at 50 mg/kg: 50 mg/kg p.o.
Source text: Tumor cells (5 X 10^5 to 8 X 10^6) of DLD-1 (human colon carcinoma cells, ATCC # CCL 221) are innolculated subcutaneously into the flank of 5-6 week o;d athymic nu/nu female mice.

[6] = test system: Ras-CVLS processing in COS monkey kidney cells; test: COS cell assay: inhibition of Ras-CVLS processing (Western blot); format: cell-based
Source text: • 1. In vitro enzyme assays: Inhibition of farnesyl protein transferase and geranylgeranyl protein transferase. Both farnesyl protein transferase (FPT) and geranylgeranyl protein transferase (GGPT) I were partially purified from rat brain by ammonium sulfate fractionation followed by Q-Sepharose (Pharmacia, Inc.) anion exchange chromatography essentially as described by Yokoyama et al (Yokoyama, K., et al., (1991), A protein geranylgeranyltransferase from bovine brain: Implications for protein prenylation specificity, Proc. Natl. Acad. Sci USA 88: 5302-5306, the disclosure of which is incorporated herein by reference thereto). Human farnesyl protein transferase was also expressed in E. coli, using cDNA clones encoding both the a and b subunits. The methods used were similar to those published (Omer, C. et al., (1993), Characterization of recombinant human farnesyl protein transferase: Cloning, expression, farnesyl diphosphate binding, and functional homology with yeast prenyl-protein transferases, Biochemistry 32:5167-5176). Human farnesyl protein transferase was partially-purified from the soluble protein fraction of E. coli as described above. […] Two forms of val^12-Ha-Ras protein were prepared as substrates for these enzymes, differing in their carboxy terminal sequence. One form terminated in cysteine-valine-leucine-serine (Ras-CVLS) the other in cystein-valine-leucine-leucine (Ras-CVLL). Ras-CVLS is a substrate for the farnesyl protein transferase while Ras-CVLL is a substrate for geranylgeranyl protein transferase I. The cDNAs encoding these proteins were constructed so that the proteins contain an amino-terminal extension of 6 histidine residues. Both proteins were expressed in Escherichia coli and purified using metal chelate affinity chromatography. The radiolabelled isoprenyl pyrophosphate substrates, [^3H]farnesyl pyrophosphate and [^3H]geranylgeranyl pyrophosphate, were purchased from DuPont/New England Nuclear. Several methods for measuring farnesyl protein transferase activity have been described (Reiss et al 1990, Cell 62: 81; Schaber et al 1990, J. Biol. Chem. 265: 14701; Manne et al 1990, PNAS 87: 7541; and Barbacid & Manne 1993, U.S. Patent No. 5,185,248). […] The reaction was allowed to proceed for 30 minutes at room temperature and then stopped with 0.5 ml of 4% sodium dodecyl sulfate (SDS) followed by 0.5 ml of cold 30% TCA. Samples were allowed to sit on ice for 45 minutes and precipitated Ras protein was then collected on GF/C filter paper mats using a Brandel cell harvester. Filter mats were washed once with 6% TCA, 2% SDS and radioactivity was measured in a Wallac 1204 Betaplate BS liquid scintillation counter. Percent inhibition was calculated relative to the DMSO vehicle control. The geranylgeranyl protein transferase I assay was essentially identical to the farnesyl protein transferase assay described above, with two exceptions: [^3H]geranylgeranylpyrophosphate replaced farnesyl pyrophosphate as the isoprenoid donor and Ras-CVLL was the protein acceptor. […] Cell-Based Assay: Transient expression of val^12-Ha-Ras-CVLS and val^12-Ha-Ras-CVLL in COS monkey kidney cells: Effect of farnesyl protein transferase inhibitors on Ras processing and on disordered cell growth induced by transforming Ras. COS monkey kidney cells were transfected by electroporation with the plasmid pSV-SPORT (Gibco/BRL) containing a cDNA insert encoding either Ras-CVLS or Ras-CVLL, leading to transient overexpression of a Ras substrate for either farnesyl protein transferase or geranylgeranyl protein transferase I, respectively (see above). Following electroporation, cells were plated into 6-well tissue culture dishes containing 1.5 ml of Dulbecco's-modified Eagle's media (GIBCO, Inc.) supplemented with 10% fetal calf serum and the appropriate farnesyl protein transferase inhibitors. After 24 hours, media was removed and fresh media containing the appropriate drugs was re-added.

[7] = test system: DLD-1-BAG human colon carcinoma cells expressing as activated K-ras gene; test: Cell Mat Assay, DLD-1 tumor cells; format: cell-based; details: Mat assay
[8] = test system: SW620-BAG human colon carcinoma cells expressing an activated K-ras gene; test: Cell Mat Assay, SW620 tumor cells; format: cell-based; details: Mat assay
[9] = Table 2, comparison with GGPT, read-out: ENZYME INHIBITION FPT IC50

SMILES | IC50 [1] [nM] | IC50 ([2]; Homo sapiens) [nM] | IC50 ([3]; Homo sapiens, Fibroblast) [nM] | IC50 ([4]; Table 1, partially purified rat brain FPT, Ras-CVLS, read-out: FPT IC50) [nM] | IC50 [4, 9] [nM] | inhibition in vivo at 10 mg/kg [5] [%] | inhibition in vivo at 50 mg/kg [5] [%] | IC50 ([4]; FPT IC50, Table 1, partially purified rat brain FPT, Ras-CVLS) [nM] | IC50 [6] [nM] | IC50 [7] [nM] | IC50 [2] [nM] | IC50 [3] [nM] | IC50 [8] [nM]
NC(=O)N1CCC(CC(=O)N2CCC(C3c4ccc(Cl)cc4CCc4cc(Br)cnc43)CC2)CC1 (stereo not drawn) [Example 4] | > 35700 | 3100 | > 25000 | 46 | 46 | 7 to 50 | 35.4 to 83 |  |  |  |  |  | 
O=C(Cc1cc[n+]([O-])cc1)N1CCC(=C2c3ncc(Br)cc3CCc3cc(Cl)cc(Br)c32)CC1 (single isomer, unassigned) [Example 7B] | > 66000 |  |  |  | < 3 |  |  | < 3 |  |  |  |  | 
NC(=O)N1CCC(CC(=O)N2CCC(=C3c4ncc(Br)cc4CCc4cc(Cl)cc(Br)c43)CC2)CC1 (single isomer, unassigned) [Example 8B] | > 60000 |  |  |  |  | 7 to 50 | 35.4 to 83 |  | 280 | < 1600 | < 1600 | > 25000 | 3100
